Test results published in patent US11147272B2, “Pyridone compounds and agricultural and horticultural fungicides comprising the same as active ingredients” (MITSUI CHEMICALS AGRO, INC., priority 2017, dated 2021).

Legend:
Botrytis cinerea = assay: Test Example B: Gray mold on tomato; conditions: 250 ppm drug solution sprayed on test plant
[1] = system: Blumeria graminis f. sp. hordei; assay: Test Example D: Powdery mildew on barley; conditions: 250 ppm drug solution sprayed on test plant
[2] = system: Colletotrichum orbiculare; assay: Test Example H: Anthracnose on cucumber; conditions: 250 ppm drug solution sprayed (2.5 ml/pot), cucumber Sagami Hanjiro, 6 to 10 days after inoculation
Alternaia brassicicola = assay: Test Example C: Alternaria sooty spot on cabbage; assay type: in vivo; conditions: 250 ppm drug solution sprayed on test plant
Excerpt: Seeds of a test plant (cabbage variety: Shikidori) were planted and cultivated until the cotyledons extended.
<Control Value> Control value=100{1−(n/3)}

Phytophthora infestans = assay: whole plant or invertebrate; assay type: in vivo; conditions: 250 ppm drug solution sprayed on test plant
Puccinia recondita = assay: Test Example E: Brown rust on wheat; assay type: in vivo; conditions: 250 ppm drug solution sprayed on test plant
Plasmopara viticola = assay: Test Example G: Downy mildew on vine; conditions: 250 ppm drug solution sprayed (2.5 ml/pot), grape Neomuscat, 7 to 10 days after inoculation
Magnaporthe grisea = assay: whole plant or invertebrate; assay type: in vivo; conditions: 250 ppm drug solution sprayed on test plant

Row | SMILES | Test B control value (Botrytis cinerea) | Test D control value [1] | Test H control value [2] | Test C control value (Alternaia brassicicola) | Test F control value (Phytophthora infestans) | Test E control value (Puccinia recondita) | Test G control value (Plasmopara viticola) | Test A control value (Magnaporthe grisea)
1 | CCC(OC)c1cc(Br)c(=O)n(CC)c1-c1c(F)cc(F)cc1F (stereo not drawn) [compound 504] | H (more than 50% control value) | H (more than 50% control value) | H (more than 50% control value) | H (more than 50% control value) | L (50% or less control value) | H (more than 50% control value) | H (more than 50% control value) | H (more than 50% control value)
2 | CCC(C)(O)c1cc(Cl)c(=O)n(C)c1-c1c(F)cc(F)cc1F (stereo not drawn) [compound 505] | H (more than 50% control value) | H (more than 50% control value) | H (more than 50% control value) | H (more than 50% control value) | L (50% or less control value) | H (more than 50% control value) | H (more than 50% control value) | H (more than 50% control value)
3 | CCC(OC)c1cc(Cl)c(=O)n(C)c1-c1c(F)cc(OC)cc1F (stereo not drawn) [compound 506] | H (more than 50% control value) | H (more than 50% control value) | H (more than 50% control value) | H (more than 50% control value) | L (50% or less control value) | H (more than 50% control value) | H (more than 50% control value) | H (more than 50% control value)
4 | CCC(OC)c1cc(Br)c(=O)n(CC)c1-c1c(F)cc(OC)cc1F (stereo not drawn) [compound 507] | H (more than 50% control value) | H (more than 50% control value) | H (more than 50% control value) | H (more than 50% control value) | L (50% or less control value) | H (more than 50% control value) | H (more than 50% control value) | H (more than 50% control value)
5 | CCC(C)(OC)c1cc(Cl)c(=O)n(C)c1-c1c(F)cc(F)cc1F (stereo not drawn) [compound 508] | H (more than 50% control value) | H (more than 50% control value) | H (more than 50% control value) | H (more than 50% control value) | L (50% or less control value) | H (more than 50% control value) | H (more than 50% control value) | H (more than 50% control value)
6 | CCOC(C)(CC)c1cc(Cl)c(=O)n(C)c1-c1c(F)cc(F)cc1F (stereo not drawn) [compound 509] | L (50% or less control value) | H (more than 50% control value) | H (more than 50% control value) | L (50% or less control value) | L (50% or less control value) | H (more than 50% control value) | H (more than 50% control value) | H (more than 50% control value)
7 | CCn1c(-c2c(F)cccc2F)c(C=O)ccc1=O [compound 510] | L (50% or less control value) | L (50% or less control value) | L (50% or less control value) | L (50% or less control value) | L (50% or less control value) | L (50% or less control value) | L (50% or less control value) | H (more than 50% control value)
8 | CCC(C)(OC)c1cc(Cl)c(=O)n(C)c1-c1c(F)cc(OC)cc1F (stereo not drawn) [compound 511] | H (more than 50% control value) | L (50% or less control value) | H (more than 50% control value) | H (more than 50% control value) | L (50% or less control value) | H (more than 50% control value) | H (more than 50% control value) | H (more than 50% control value)
9 | CCC(C)(O)c1cc(Cl)c(=O)n(C)c1-c1c(F)cc(OC)cc1F (stereo not drawn) [compound 513] | H (more than 50% control value) | H (more than 50% control value) | H (more than 50% control value) | H (more than 50% control value) | L (50% or less control value) | H (more than 50% control value) | H (more than 50% control value) | H (more than 50% control value)
10 | CCn1c(-c2c(F)cc(F)cc2F)c(C(C)O)cc(Cl)c1=O (stereo not drawn) [compound 514] | H (more than 50% control value) | H (more than 50% control value) | H (more than 50% control value) | H (more than 50% control value) | L (50% or less control value) | H (more than 50% control value) | H (more than 50% control value) | L (50% or less control value)
11 | CCn1c(-c2c(F)cccc2F)c(C(O)C(C)C)cc(Br)c1=O (stereo not drawn) [compound 520] | H (more than 50% control value) | H (more than 50% control value) | H (more than 50% control value) | H (more than 50% control value) | L (50% or less control value) | H (more than 50% control value) | H (more than 50% control value) | H (more than 50% control value)
12 | CCn1c(-c2c(F)cccc2F)c(C(C)(O)C(C)C)ccc1=O (stereo not drawn) [compound 521] | H (more than 50% control value) | H (more than 50% control value) | L (50% or less control value) | H (more than 50% control value) | L (50% or less control value) | H (more than 50% control value) | H (more than 50% control value) | L (50% or less control value)
